Here are results for one compound from US20230071637A1, “ORAL SUSPENSION WITH ANTIULCEROUS AND CHEMOPROTECTIVE EFFECT ON COLON CANCER AND PREPARATION METHOD THEREOF” (CENTRO NACIONAL DE INVESTIGACIONES CIENTIFICAS, priority 2020, published 2023).

The subject of assay [1] is ethanol-induced gastric ulcer. The assay is described as follows: Ethanol-induced gastric ulcer in rats. In kind it is in vivo, Sprague-Dawley rats. Particulars: 20 mg/kg oral single dose. The source says:
The composition obtained in example 2 (FAMC) was subjected to a preclinical test with animals, in which its antiulcer effect was compared with the antiulcer effects of the registered fatty alcohol tablet (RAT), and suspensions of Fatty Alcohols (FA) and microcrystalline cellulose (MC), the latter two prepared with doses of FA and MC equal to the doses of both substances in the FAMC suspension. The experimental model used in this trial was the induction of gastric ulcers in rats by ethanol. […] After completing the quarantine, the animals were randomly distributed into 11 experimental groups (10 rats/group): a negative control that only received the vehicle and 10 groups in which the ulcer was induced with 60% ethanol, among these a control positive not treated with any antiulcer agent, 8 groups treated with the substances to be evaluated and a group treated with Omeprazole as a reference substance, as shown in Table 2. […] The use of a negative control group (not subjected to damage with ethanol), as well as a positive control group (subjected to damage and without treatment with any substance) made it possible to verify the functioning of the model and compare the anti-ulcer efficacy of the substances evaluated. […]

For assay [2], the system named is gastric ulcer induced by pylorus ligation. Put plainly: Gastric ulcer induced by pylorus ligation in rats. In kind it is in vivo, Sprague-Dawley rats. An excerpt: The composition obtained in example 2 (FAMC) was subjected to a preclinical test with animals, in which its antiulcer effect was compared with the antiulcer effects of the registered fatty alcohol tablet (RAT), and suspensions of Fatty Alcohols (FA) and microcrystalline cellulose (MC), the latter two prepared with doses of FA and MC equal to the doses of both substances in the FAMC suspension. The experimental model used in this test was that of the induction of gastric ulcers in rats by ligation of the pylorus, which is an acid-dependent model, unlike the model presented in the previous example. […] After completing the quarantine, the animals were randomly distributed into 11 experimental groups (10 rats/group): a negative control that only received the vehicle and 10 groups in which the ulcer was induced by ligation of the pylorus, among these a positive control not treated with any antiulcer agent, 8 groups treated with the substances to be evaluated and a group treated with Omeprazole as a reference substance, as shown in Table 3. The suspensions were administered as they are, while a suspension with 1% acacia gum was prepared to administer the tablet. The use of a negative control group (not subjected to pylorus ligation), as well as that of a positive control (subjected to damage and without treatment with any substance) made it possible to verify the functioning of the model and compare the anti-ulcer efficacy of the substances evaluated. All treatments were administered orally, as a single dose, by intragastric intubation. The selected doses are within the range of effective doses verified in previous preliminary experiences and the dose of omeprazole (20 mg/kg) has also been effective in this model. To induce gastric ulcer, the animals were fasted for 24 hours prior to the experiment, with free access to water. One hour after the administration of single doses of the vehicle, and the different treatments, the animals were anesthetized by intraperitoneal injection with sodium thiopental (35 mg/kg), a 2 cm-long incision was made in the anterior third of the line abdominal media, locating the stomach and ligating the pyloric sphincter with silk suture number 2 and the abdominal wall was sutured with silk thread. One hour later, the rats were sacrificed in a halothane atmosphere, the stomachs were removed and the gastric juice collected in test tubes. The latter was centrifuged at 3000 rpm, the supernatant separated and quantified in ml.

Marks after values point to notes of the source that are not given here.

In the case of `COc1ccc2[nH]c([S+]([O-])Cc3ncc(C)c(OC)c3C)nc2c1` (stereo not drawn) [OMP, Omeprazole], the “Ulcer Index” value in assay [1] (1 h before 60% ethanol, mean ± SEM) was 35.97 ± 14.48*** mm^2; in assay [2] (20 mg/kg oral single dose, 1 h before pylorus ligation, mean ± SEM), 3,9 ± 0,5 *** mm^2. Further, the “I (%) inhibition of ulcer index” value in assay [1] (vs positive control) is 78.8%; in assay [2] (20 mg/kg oral single dose, vs positive control), 83,2%. Besides, the Gastric juice volume in assay [2] (20 mg/kg oral single dose, supernatant of gastric juice 1 h after ligation, mean ± SEM) is 3,4 ± 0,4 ml. Besides, the “volume of gastric juice (effect in words)” value in assay [2] (pylorus ligation, doses tested, vs positive control) is listed as “reduced”.
